Experimental data published in ChEMBL document CHEMBL5614367, “Hydroxamic acid hybrids: Histone deacetylase inhibitors with anticancer therapeutic potency” (Eur J Med Chem, 2023).

Assays:
A-431 = assay: Antiproliferative activity against human A-431 cells assessed as inhibition of cell growth by MTT assay; assay type: functional, cell-based
HCT-116 [1] = assay: Antiproliferative activity against human HCT-116 cells assessed as inhibition of cell growth by MTT assay; assay type: functional, cell-based
[2] = biological target: E3 ubiquitin-protein ligase Mdm2 (Homo sapiens) (UniProt Q00987); assay: Inhibition of MDM2 (unknown origin) using biotinylated P53 peptide as substrate at 1 uM by HTRF assay relative to control
Chain of E3 ubiquitin-protein ligase Mdm2 (Homo sapiens) (Q00987 whole entry, looked up): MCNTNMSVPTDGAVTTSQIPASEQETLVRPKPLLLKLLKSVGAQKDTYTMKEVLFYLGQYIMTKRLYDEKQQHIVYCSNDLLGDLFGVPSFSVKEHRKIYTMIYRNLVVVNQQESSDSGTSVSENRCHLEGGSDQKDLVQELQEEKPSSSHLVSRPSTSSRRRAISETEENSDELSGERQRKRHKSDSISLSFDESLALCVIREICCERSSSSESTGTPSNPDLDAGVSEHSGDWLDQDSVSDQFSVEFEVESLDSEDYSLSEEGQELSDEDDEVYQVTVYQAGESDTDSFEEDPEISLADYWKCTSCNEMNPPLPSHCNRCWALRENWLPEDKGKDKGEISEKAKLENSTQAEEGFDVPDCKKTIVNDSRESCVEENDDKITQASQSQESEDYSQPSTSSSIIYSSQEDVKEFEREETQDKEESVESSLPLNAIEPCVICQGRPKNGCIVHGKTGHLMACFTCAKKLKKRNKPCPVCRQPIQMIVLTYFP

MCF7 = assay: Antiproliferative activity against human MCF7 cells assessed as inhibition of cell growth by MTT assay; assay type: functional, cell-based
BE(2)-C [3] = assay: Antitumor activity against human BE2C cells xenografted in mouse assessed as tumor growth inhibition at 5 mg/kg, ip in presence of 50 mg/kg vorinostat relative to control; assay type: functional; details: read-out: TGI
BE(2)-C [4] = assay: Antitumor activity against human BE2C cells xenografted in mouse assessed as tumor growth inhibition at 5 mg/kg, ip relative to control; assay type: functional; details: read-out: TGI
C6 = assay: Antitumor activity against rat C6 cells allografted in Sprague-Dawley rat assessed as survival time at 150 mg/kg, po measured for 20 days; assay type: functional; details: time 20 day
U-87 MG = assay: Antitumor activity against luciferase-transferred human U-87 MG cells xenografted in athymic nude mouse assessed as survival time at 150 mg/kg, po measured for 20 days; assay type: functional, U-87MG ATCC; details: time 20 day
A549 = assay: Antiproliferative activity against human A549 cells
[5] = Cytotoxicity against human NCM460 cells; assay type: toxicity, cell-based
HT-29 = assay: Antiproliferative activity against human HT-29 cells; assay type: functional, cell-based
HepG2 = assay: Antiproliferative activity against human HepG2 cells; assay type: functional, cell-based
[6] = biological target: T1, Protein deacetylase HDAC6 (Homo sapiens, UniProt Q9UBN7); assay: Inhibition of HDAC6 (unknown origin)
T1 sequence (Q9UBN7 whole entry): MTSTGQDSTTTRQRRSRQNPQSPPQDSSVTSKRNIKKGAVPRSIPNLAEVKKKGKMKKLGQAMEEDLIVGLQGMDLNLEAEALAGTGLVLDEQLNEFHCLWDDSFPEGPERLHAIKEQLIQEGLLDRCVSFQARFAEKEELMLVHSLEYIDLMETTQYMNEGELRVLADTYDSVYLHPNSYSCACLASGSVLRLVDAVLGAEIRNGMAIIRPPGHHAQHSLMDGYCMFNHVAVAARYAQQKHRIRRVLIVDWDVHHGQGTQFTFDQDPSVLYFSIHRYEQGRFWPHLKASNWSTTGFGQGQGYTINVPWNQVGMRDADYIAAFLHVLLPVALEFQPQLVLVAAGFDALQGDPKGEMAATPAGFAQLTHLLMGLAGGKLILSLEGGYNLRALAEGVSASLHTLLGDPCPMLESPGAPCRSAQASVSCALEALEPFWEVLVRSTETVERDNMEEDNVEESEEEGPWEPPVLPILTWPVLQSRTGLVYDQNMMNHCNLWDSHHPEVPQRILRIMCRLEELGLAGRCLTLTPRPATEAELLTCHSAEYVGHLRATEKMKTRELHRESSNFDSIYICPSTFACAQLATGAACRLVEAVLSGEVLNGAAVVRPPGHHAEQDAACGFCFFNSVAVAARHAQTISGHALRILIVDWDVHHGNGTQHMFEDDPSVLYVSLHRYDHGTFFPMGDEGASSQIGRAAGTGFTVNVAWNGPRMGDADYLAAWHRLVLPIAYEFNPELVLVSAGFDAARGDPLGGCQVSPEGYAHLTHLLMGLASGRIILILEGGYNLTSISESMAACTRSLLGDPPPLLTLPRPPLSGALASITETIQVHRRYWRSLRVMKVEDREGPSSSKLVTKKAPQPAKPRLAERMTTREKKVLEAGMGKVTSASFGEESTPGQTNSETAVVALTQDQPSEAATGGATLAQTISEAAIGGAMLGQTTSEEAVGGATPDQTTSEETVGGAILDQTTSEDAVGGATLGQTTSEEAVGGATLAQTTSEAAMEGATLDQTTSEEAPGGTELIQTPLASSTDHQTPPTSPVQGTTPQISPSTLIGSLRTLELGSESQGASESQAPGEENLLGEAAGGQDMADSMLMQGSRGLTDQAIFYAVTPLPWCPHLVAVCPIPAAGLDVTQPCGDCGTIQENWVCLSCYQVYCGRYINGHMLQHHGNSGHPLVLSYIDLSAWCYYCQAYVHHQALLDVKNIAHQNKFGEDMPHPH

Histone deacetylase 1 = Histone deacetylase 1 (Homo sapiens, UniProt Q13547); assay: Inhibition of HDAC1 (unknown origin)
Chain of Histone deacetylase 1 (Q13547 whole entry): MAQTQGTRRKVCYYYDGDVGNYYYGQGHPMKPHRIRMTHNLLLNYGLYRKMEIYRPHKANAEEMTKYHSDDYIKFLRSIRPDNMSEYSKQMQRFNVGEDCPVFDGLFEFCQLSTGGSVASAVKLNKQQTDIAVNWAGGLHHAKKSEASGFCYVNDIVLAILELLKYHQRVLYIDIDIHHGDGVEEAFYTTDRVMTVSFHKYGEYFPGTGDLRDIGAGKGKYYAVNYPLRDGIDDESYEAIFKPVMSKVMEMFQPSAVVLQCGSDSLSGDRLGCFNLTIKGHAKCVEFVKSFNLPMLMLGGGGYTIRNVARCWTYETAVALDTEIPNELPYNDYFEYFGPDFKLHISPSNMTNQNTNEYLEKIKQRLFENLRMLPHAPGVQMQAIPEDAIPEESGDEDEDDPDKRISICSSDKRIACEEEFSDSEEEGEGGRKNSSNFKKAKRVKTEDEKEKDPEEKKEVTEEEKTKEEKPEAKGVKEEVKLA

[7] = Cytotoxicity against human L02 cells; assay type: toxicity, cell-based
HCT-116 [8] = assay: cells; details: Homo sapiens

In the case of `O=C(CCCCCCC(=O)N1CCC(C(=O)Nc2ccc([C@@H]3[C@H]4CSCN4[C@]4(C(=O)Nc5cc(Cl)ccc54)[C@H]3C(=O)c3ccccc3)cc2)CC1)NO`, the IC50 (A-431) is reported as 1370 nM, the IC50 (HCT-116 [1]) is reported as 1370 nM and the inhibition [2] is reported as 65%. It also gave an IC50 (MCF7) of 1370 nM.
In the case of `CC(=O)O[C@H]1C(=O)[C@@]2(C)[C@H]([C@H](OC(=O)c3ccccc3)[C@]3(O)C[C@H](OC(=O)[C@H](O)[C@@H](NC(=O)c4ccccc4)c4ccccc4)C(C)=C1C3(C)C)[C@]1(OC(C)=O)CO[C@@H]1C[C@@H]2O` [PACLITAXEL], the inhibition in vivo at 5 mg/kg (BE(2)-C [3]) is reported as 44% and the inhibition in vivo at 5 mg/kg (BE(2)-C [4]) is reported as 30%.
Molecule `O=C(CCCCCCC(=O)Nc1ccccc1)NO` [VORINOSTAT] has a Survival (C6) of 13 days and a Survival (U-87 MG) of 13 days.
Molecule `COc1ccc2c3ccnc(C)c3n(CC3CCN(c4ncc(C(=O)NO)cn4)CC3)c2c1` has an IC50 (A549) of 1410 nM, an IC50 [5] of 18500 nM and an IC50 (HT-29) of 1410 nM. For the same molecule, the IC50 (HepG2) was 1410 nM, the IC50 [6] was 450 nM and the IC50 (Histone deacetylase 1) was 22 nM. The IC50 [7] was 11300 nM and the IC50 (HCT-116 [8]) was 1410 nM.
